Experimental data reported in the supplement of paper PMC10307832.

compound: O=C(Nc1cc(C(F)(F)F)cc(C(F)(F)F)c1)c1cc(Cl)ccc1O [IMD-0354] + Nc1ncn([C@H]2C[C@H](O)[C@@H](CO)O2)c(=O)n1 [Decitabine] (partner 2 µM); assay: relative viability (nuclei count vs DMSO), 5 days (fraction); higher = more cells survive; settings: first compound 0.04 µM
Outline: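 One day after seeding in 1536-well plates, lung cancer cell lines were dosed by pin tool. Dosing was either single-drug or a fixed anchor-drug dose plus five library-drug doses (not always all listed) in √10 steps. After 5 days, nuclei were stained in one fix-and-stain step and counted on 4× images, and relative viability is the nuclei count of treated wells over that of vehicle wells, given as the median of duplicate plates.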

| Cell Line | relative viability |
| --- | --- |
| NCI-H358 | 0.239 |
| NCI-H2405 | 0.883 |
| HOP-62 | 0.217 |
| HCC-44 | 0.971 |
| LU99A | 0.565 |
| BEN | 0.739 |
| HARA | 0.5 |
| HCC-78 | 0.714 |
| NCI-H322M | 0.747 |
| LCLC-97TM1 | 0.232 |
| A-427 | 0.709 |
| NCI-H441 | 0.223 |
| NCI-H1734 | 0.513 |
| NCI-H460 | 0.401 |
| NCI-H2347 | 0.546 |
| NCI-H1793 | 0.583 |

| Cell Line | relative viability |
| --- | --- |
| 201T | 0.797 |
| NCI-H1915 | 0.299 |
| HCC-827 | 0.369 |
| LXF-289 | 0.375 |
| NCI-H23 | 0.271 |
| NCI-H647 | 0.381 |
| NCI-H1651 | 0.667 |
| EPLC-272H | 0.372 |
| NCI-H1792 | 0.675 |
| NCI-H1355 | 0.397 |
| NCI-H3122 | 0.46 |
| NCI-H1437 | 0.635 |
| NCI-H1755 | 0.798 |
| HCC-15 | 0.68 |
| NCI-H1944 | 0.44 |
| PC-14 | 0.249 |

same assay, conditions: first compound 0.1265 µM

| Cell Line | relative viability |
| --- | --- |
| NCI-H358 | 0.204 |
| NCI-H2405 | 0.801 |
| HOP-62 | 0.226 |
| HCC-44 | 0.939 |
| LU99A | 0.885 |
| BEN | 0.741 |
| HARA | 0.665 |
| HCC-78 | 0.619 |
| NCI-H322M | 0.583 |
| LCLC-97TM1 | 0.257 |
| A-427 | 0.593 |
| NCI-H441 | 0.256 |
| NCI-H1734 | 0.491 |
| NCI-H460 | 0.561 |
| NCI-H2347 | 0.653 |
| NCI-H1793 | 0.438 |

| Cell Line | relative viability |
| --- | --- |
| 201T | 0.807 |
| NCI-H1915 | 0.267 |
| HCC-827 | 0.346 |
| LXF-289 | 0.312 |
| NCI-H23 | 0.313 |
| NCI-H647 | 0.426 |
| NCI-H1651 | 0.638 |
| EPLC-272H | 0.341 |
| NCI-H1792 | 0.38 |
| NCI-H1355 | 0.373 |
| NCI-H3122 | 0.455 |
| NCI-H1437 | 0.538 |
| NCI-H1755 | 0.741 |
| HCC-15 | 0.614 |
| NCI-H1944 | 0.451 |
| PC-14 | 0.22 |

same assay, conditions: first compound 0.4 µM

| Cell Line | relative viability |
| --- | --- |
| NCI-H358 | 0.172 |
| NCI-H2405 | 0.636 |
| HOP-62 | 0.208 |
| HCC-44 | 0.813 |
| LU99A | 0.539 |
| BEN | 0.567 |
| HARA | 0.399 |
| HCC-78 | 0.583 |
| NCI-H322M | 0.617 |
| LCLC-97TM1 | 0.199 |
| A-427 | 0.522 |
| NCI-H441 | 0.247 |
| NCI-H1734 | 0.467 |
| NCI-H460 | 0.183 |
| NCI-H2347 | 0.483 |
| NCI-H1793 | 0.335 |

| Cell Line | relative viability |
| --- | --- |
| 201T | 0.851 |
| NCI-H1915 | 0.224 |
| HCC-827 | 0.296 |
| LXF-289 | 0.393 |
| NCI-H23 | 0.295 |
| NCI-H647 | 0.237 |
| NCI-H1651 | 0.528 |
| EPLC-272H | 0.362 |
| NCI-H1792 | 0.387 |
| NCI-H1355 | 0.327 |
| NCI-H3122 | 0.408 |
| NCI-H1437 | 0.34 |
| NCI-H1755 | 0.671 |
| HCC-15 | 0.292 |
| NCI-H1944 | 0.398 |
| PC-14 | 0.142 |

same assay, conditions: first compound 1.265 µM

| Cell Line | relative viability |
| --- | --- |
| NCI-H358 | 0.106 |
| NCI-H2405 | 0.294 |
| HOP-62 | 0.17 |
| HCC-44 | 0.625 |
| LU99A | 0.617 |
| BEN | 0.391 |
| HARA | 0.189 |
| HCC-78 | 0.6 |
| NCI-H322M | 0.403 |
| LCLC-97TM1 | 0.162 |
| A-427 | 0.15 |
| NCI-H441 | 0.131 |
| NCI-H1734 | 0.389 |
| NCI-H460 | 0.0498 |
| NCI-H2347 | 0.491 |
| NCI-H1793 | 0.098 |

| Cell Line | relative viability |
| --- | --- |
| 201T | 0.828 |
| NCI-H1915 | 0.25 |
| HCC-827 | 0.19 |
| LXF-289 | 0.356 |
| NCI-H23 | 0.192 |
| NCI-H647 | 0.117 |
| NCI-H1651 | 0.156 |
| EPLC-272H | 0.337 |
| NCI-H1792 | 0.358 |
| NCI-H1355 | 0.274 |
| NCI-H3122 | 0.469 |
| NCI-H1437 | 0.257 |
| NCI-H1755 | 0.644 |
| HCC-15 | 0.108 |
| NCI-H1944 | 0.473 |
| PC-14 | 0.0934 |

same assay, conditions: first compound 4 µM

| Cell Line | relative viability |
| --- | --- |
| NCI-H358 | 0.108 |
| NCI-H2405 | 0.347 |
| HOP-62 | 0.0936 |
| HCC-44 | 0.449 |
| LU99A | 0.293 |
| BEN | 0.347 |
| HARA | 0.251 |
| HCC-78 | 0.426 |
| NCI-H322M | 0.404 |
| LCLC-97TM1 | 0.115 |
| A-427 | 0.175 |
| NCI-H441 | 0.146 |
| NCI-H1734 | 0.213 |
| NCI-H460 | 0.0274 |
| NCI-H2347 | 0.323 |
| NCI-H1793 | 0.262 |
| 201T | 0.331 |
| NCI-H1915 | 0.169 |
| HCC-827 | 0.196 |
| LXF-289 | 0.201 |
| NCI-H23 | 0.24 |
| NCI-H647 | 0.106 |
| NCI-H1651 | 0.147 |
| EPLC-272H | 0.288 |
| NCI-H1792 | 0.174 |
| NCI-H1355 | 0.21 |
| NCI-H3122 | 0.227 |
| NCI-H1437 | 0.229 |
| NCI-H1755 | 0.316 |
| HCC-15 | 0.161 |
